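Exposure lasted 48 hours, with cells grown in 96-well plates and compounds tested at five concentrations. GI50: concentration for 50% inhibition of growth.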 The source made the active and inactive calls. Cut-off read from the data, not from the text of the source: active = GI50 up to about 1.1 µM and inactive = higher.
Legend:
Assay in all cases: NCI tumour cell line growth inhibition, 48 h
A549 = test system: A549
ACHN = test system: ACHN
CCRF-CEM = test system: CCRF-CEM
DLD-1 = test system: DLD-1
EKVX = test system: EKVX
HCC 2998 = test system: HCC 2998
HCT-116 = test system: HCT-116
HCT-15 = test system: HCT-15
HL-60 = test system: HL-60
HOP-62 = test system: HOP-62
HOP-92 = test system: HOP-92
HT-29 = test system: HT-29
IGROV-1 = test system: IGROV-1
K562 = test system: K562
KM-20L2 = test system: KM-20L2
KM12 = test system: KM12
LOX IMVI = test system: LOX IMVI
LXFL 529 = test system: LXFL 529
M14 = test system: M14
M19-MEL = test system: M19-MEL
MOLT-4 = test system: MOLT-4
Malme-3M = test system: Malme-3M
NCI-H23 = test system: NCI-H23
NCI-H460 = test system: NCI-H460
NCI-H522 = test system: NCI-H522
OVCAR-3 = test system: OVCAR-3
OVCAR-4 = test system: OVCAR-4
OVCAR-5 = test system: OVCAR-5
OVCAR-8 = test system: OVCAR-8
RXF 393 = test system: RXF 393
SF-295 = test system: SF-295
SF-539 = test system: SF-539
SK-MEL-28 = test system: SK-MEL-28
SK-MEL-2 = test system: SK-MEL-2
SK-MEL-5 = test system: SK-MEL-5
SK-OV-3 = test system: SK-OV-3
SN12C = test system: SN12C
SNB-75 = test system: SNB-75
SNB-78 = test system: SNB-78
SR = test system: SR
SW-620 = test system: SW-620
TK-10 = test system: TK-10
U-251 = test system: U-251
UACC-257 = test system: UACC-257
UACC-62 = test system: UACC-62
UO-31 = test system: UO-31
XF498 = test system: XF498
DMS-114 = test system: DMS-114
RPMI-8226 = test system: RPMI-8226
786-0 = test system: 786-0
A498 = test system: A498
CAKI-1 = test system: CAKI-1
COLO 205 = test system: COLO 205
DMS-273 = test system: DMS-273
NCI-H226 = test system: NCI-H226
SF-268 = test system: SF-268
SNB-19 = test system: SNB-19

Measured: GI50

COC1C=CC(O)C(CO)O1 (stereo not drawn)
inactive: A549 > 100 µM | ACHN > 100 µM | CCRF-CEM > 100 µM | DLD-1 > 100 µM | EKVX > 100 µM | HCC 2998 > 100 µM | HCT-116 > 100 µM | HL-60 > 100 µM | HOP-62 > 100 µM | HOP-92 > 100 µM | HT-29 > 100 µM | IGROV-1 > 100 µM | K562 > 100 µM | KM-20L2 > 100 µM | KM12 > 100 µM | LOX IMVI > 100 µM | LXFL 529 > 100 µM | M14 > 100 µM | M19-MEL > 100 µM | MOLT-4 > 100 µM | Malme-3M > 100 µM | NCI-H23 > 100 µM | NCI-H460 > 100 µM | NCI-H522 > 100 µM | OVCAR-3 > 100 µM | OVCAR-4 > 100 µM | OVCAR-5 > 100 µM | OVCAR-8 > 100 µM | RXF 393 > 100 µM | SF-295 > 100 µM | SF-539 > 100 µM | SK-MEL-28 > 100 µM | SK-MEL-2 > 100 µM | SK-MEL-5 > 100 µM | SK-OV-3 > 100 µM | SN12C > 100 µM | SNB-75 > 100 µM | SNB-78 > 100 µM | SR > 100 µM | SW-620 > 100 µM | TK-10 > 100 µM | U-251 > 100 µM | UACC-257 > 100 µM | UACC-62 > 100 µM | UO-31 > 100 µM | XF498 > 100 µM
> 100 µM: HCT-15

CC(C)=CCCC1(C)C=Cc2c(ccc3c2[nH]c2cc(O)c(C)cc23)O1 (stereo not drawn)
inactive: DMS-114 7.14 µM | OVCAR-3 4.75 µM | OVCAR-4 7.94 µM | OVCAR-5 19.4 µM | OVCAR-8 3.81 µM | RPMI-8226 6.59 µM | SNB-78 13 µM

COc1ccc(-c2cc(=O)c3c(OC)cccc3o2)c(OC)c1OC
> 100 µM: HCT-15
inactive: 786-0 > 100 µM | A498 > 100 µM | A549 > 100 µM | ACHN > 100 µM | CAKI-1 > 100 µM | CCRF-CEM > 100 µM | COLO 205 > 100 µM | DLD-1 95.1 µM | DMS-114 > 100 µM | DMS-273 > 100 µM | HCC 2998 > 100 µM | HCT-116 > 100 µM | HL-60 63.1 µM | HOP-62 > 100 µM | HOP-92 39.9 µM | HT-29 > 100 µM | IGROV-1 > 100 µM | K562 68.5 µM | KM-20L2 > 100 µM | KM12 > 100 µM | LOX IMVI > 100 µM | LXFL 529 82.2 µM | M14 > 100 µM | M19-MEL > 100 µM | MOLT-4 54.6 µM | Malme-3M > 100 µM | NCI-H226 > 100 µM | NCI-H23 > 100 µM | NCI-H460 > 100 µM | NCI-H522 > 100 µM | OVCAR-3 > 100 µM | OVCAR-4 > 100 µM | OVCAR-5 > 100 µM | OVCAR-8 > 100 µM | RPMI-8226 80.5 µM | RXF 393 39 µM | SF-268 > 100 µM | SF-295 > 100 µM | SF-539 > 100 µM | SK-MEL-28 > 100 µM | SK-MEL-2 > 100 µM | SK-MEL-5 87.7 µM | SK-OV-3 > 100 µM | SN12C > 100 µM | SNB-75 19.8 µM | SNB-78 > 100 µM | SR 56.1 µM | SW-620 > 100 µM | TK-10 82 µM | U-251 > 100 µM | UACC-257 > 100 µM | UACC-62 > 100 µM

CC(C)(C)CC(C)(C)c1cc2c(O)c(c1)Cc1cc(C(C)(C)CC(C)(C)C)cc(c1O)Cc1cc(C(C)(C)CC(C)(C)C)cc(c1O)Cc1cc(C(C)(C)CC(C)(C)C)cc(c1O)Cc1cc(C(C)(C)CC(C)(C)C)cc(c1O)Cc1cc(C(C)(C)CC(C)(C)C)cc(c1O)Cc1cc(C(C)(C)CC(C)(C)C)cc(c1O)Cc1cc(C(C)(C)CC(C)(C)C)cc(c1O)C2
> 100 µM: HCT-15
inactive: 786-0 > 100 µM | A549 > 100 µM | ACHN > 100 µM | CCRF-CEM > 100 µM | COLO 205 > 100 µM | DLD-1 > 100 µM | DMS-273 > 100 µM | EKVX > 100 µM | HCC 2998 > 100 µM | HCT-116 > 100 µM | HL-60 > 100 µM | HOP-62 > 100 µM | HOP-92 > 100 µM | HT-29 > 100 µM | IGROV-1 > 100 µM | K562 > 100 µM | KM-20L2 > 100 µM | KM12 > 100 µM | LXFL 529 > 100 µM | M14 > 100 µM | M19-MEL > 100 µM | MOLT-4 > 100 µM | Malme-3M > 100 µM | NCI-H23 > 100 µM | NCI-H460 > 100 µM | NCI-H522 > 100 µM | OVCAR-3 > 100 µM | OVCAR-4 > 100 µM | OVCAR-5 > 100 µM | OVCAR-8 > 100 µM | RPMI-8226 > 100 µM | RXF 393 > 100 µM | SF-268 > 100 µM | SF-295 > 100 µM | SF-539 > 100 µM | SK-MEL-28 > 100 µM | SK-MEL-2 > 100 µM | SK-MEL-5 > 100 µM | SN12C > 100 µM | SNB-19 > 100 µM | SNB-75 23.9 µM | SNB-78 > 100 µM | SW-620 > 100 µM | TK-10 > 100 µM | U-251 > 100 µM | UACC-257 > 100 µM | UACC-62 > 100 µM | UO-31 > 100 µM | XF498 > 100 µM

COc1cc2c(cc1OC)-c1c(cnn1C1OC(COC(C)=O)C(OC(C)=O)C(OC(C)=O)C1OC(C)=O)CC2 (stereo not drawn)
inactive: 786-0 > 100 µM | A498 > 100 µM | A549 > 100 µM | ACHN > 100 µM | CAKI-1 > 100 µM | CCRF-CEM 28.6 µM | COLO 205 > 100 µM | DLD-1 > 100 µM | DMS-114 72.6 µM | DMS-273 > 100 µM | EKVX > 100 µM | HCT-116 > 100 µM | HL-60 11 µM | HOP-62 > 100 µM | HOP-92 48.1 µM | HT-29 > 100 µM | IGROV-1 > 100 µM | K562 33 µM | KM-20L2 > 100 µM | KM12 > 100 µM | LOX IMVI > 100 µM | LXFL 529 > 85.7 µM | M14 > 100 µM | M19-MEL > 89.1 µM | MOLT-4 > 81.5 µM | NCI-H226 > 100 µM | NCI-H23 > 100 µM | NCI-H460 > 100 µM | NCI-H522 18.7 µM | OVCAR-3 > 88.1 µM | OVCAR-4 > 100 µM | OVCAR-5 > 100 µM | OVCAR-8 > 100 µM | RPMI-8226 > 42.8 µM | SF-268 > 100 µM | SF-295 > 100 µM | SF-539 > 100 µM | SK-MEL-28 > 100 µM | SK-MEL-2 > 100 µM | SK-MEL-5 > 83.4 µM | SK-OV-3 > 100 µM | SNB-19 > 100 µM | SNB-75 48.9 µM | SNB-78 > 100 µM | SR 10.5 µM | SW-620 > 60.7 µM | TK-10 > 100 µM | U-251 34.1 µM | UACC-257 > 100 µM | UACC-62 > 100 µM | UO-31 55.7 µM
> 100 µM: HCT-15

COC1C=CC23c4cc5c(cc4C(O)OC2CN(C)C3C1)OCO5 (stereo not drawn)
active: COLO 205 1.08 µM | HCT-116 1.07 µM | HL-60 1.08 µM | M14 0.746 µM | SF-539 1.08 µM | SK-MEL-5 0.434 µM
inactive: 786-0 1.64 µM | A498 3.1 µM | A549 2.4 µM | ACHN 1.32 µM | CAKI-1 2.98 µM | CCRF-CEM 1.84 µM | DMS-114 1.26 µM | DMS-273 1.4 µM | EKVX 3.55 µM | HCC 2998 2.29 µM | HOP-62 2.54 µM | IGROV-1 4.72 µM | K562 1.77 µM | KM-20L2 1.29 µM | KM12 2.13 µM | LOX IMVI 1.29 µM | LXFL 529 1.45 µM | M19-MEL 1.52 µM | MOLT-4 1.34 µM | Malme-3M 1.9 µM | NCI-H226 1.64 µM | NCI-H23 2.94 µM | NCI-H460 2.69 µM | NCI-H522 2 µM | OVCAR-3 1.76 µM | OVCAR-4 1.35 µM | OVCAR-5 3.34 µM | OVCAR-8 2.16 µM | RPMI-8226 2.56 µM | SF-268 3.37 µM | SF-295 1.69 µM | SN12C 2.35 µM | SNB-19 1.65 µM | SR 1.17 µM | SW-620 1.59 µM | UACC-257 1.77 µM | UACC-62 4.13 µM | UO-31 2.69 µM

Reference: ChEMBL document CHEMBL1201862, “PubChem BioAssay data set” (2004)
